Results published in paper PMC5218480 (PLoS ONE, 2017).

Tested on: MV-4-11 cells
Assay: Gene expression microarray analysis (Affymetrix PrimeView) and GSEA
Type: cell-based, human
Parameters: RFU PODN (11730768_x_at) / Fold change /veh PODN (11730768_x_at) / RFU LINC00158 (11744669_a_at) / Fold change /veh LINC00158 (11744669_a_at) / RFU DUSP10 (11751237_a_at) / Fold change /veh DUSP10 (11751237_a_at) / RFU ID3 (11757404_x_at) / Fold change /veh ID3 (11757404_x_at) / RFU PLEKHG5 (11737974_s_at) / Fold change /veh PLEKHG5 (11737974_s_at) / RFU LRRC4B (11730491_at) / Fold change /veh LRRC4B (11730491_at) / RFU GIMAP4 (11747438_a_at) / Fold change /veh GIMAP4 (11747438_a_at) / RFU KRT8 (11758183_x_at) / Fold change /veh KRT8 (11758183_x_at) / RFU CNN1 (11734310_a_at) / Fold change /veh CNN1 (11734310_a_at) / RFU VPS37D (11726825_at) / Fold change /veh VPS37D (11726825_at) / RFU C10orf10 (11716522_x_at) / Fold change /veh C10orf10 (11716522_x_at) / RFU KIR2DL2 /// KIR2DL4 /// KIR2DL5A /// KIR2DL5B /// KIR2DS1 /// KIR2DS2 /// KIR2DS3 /// KIR2DS4 /// KIR3DL3 /// KIR3DL3 /// KIR3DS1 (11738374_at) / Fold change /veh KIR2DL2 /// KIR2DL4 /// KIR2DL5A /// KIR2DL5B /// KIR2DS1 /// KIR2DS2 /// KIR2DS3 /// KIR2DS4 /// KIR3DL3 /// KIR3DL3 /// KIR3DS1 (11738374_at) / RFU C1QL1 (11718748_at) / Fold change /veh C1QL1 (11718748_at) / RFU TMPRSS4 (11747572_a_at) / Fold change /veh TMPRSS4 (11747572_a_at) / RFU HAMP (11756126_x_at) / Fold change /veh HAMP (11756126_x_at) / RFU RNFT2 (11725882_a_at) / Fold change /veh RNFT2 (11725882_a_at) / RFU NR4A2 (11747474_a_at) / Fold change /veh NR4A2 (11747474_a_at) / RFU ABCC12 (11746883_a_at) / Fold change /veh ABCC12 (11746883_a_at) / RFU TMEM136 (11760407_x_at) / Fold change /veh TMEM136 (11760407_x_at) / RFU CLDN22 /// WWC2 (11732394_at) / Fold change /veh CLDN22 /// WWC2 (11732394_at) / RFU HLA-DPB1 (11760878_x_at) / Fold change /veh HLA-DPB1 (11760878_x_at) / RFU SPINT1 (11716480_a_at) / Fold change /veh SPINT1 (11716480_a_at) / RFU GAP43 (11754022_s_at) / Fold change /veh GAP43 (11754022_s_at) / RFU A4GNT (11735810_at) / Fold change /veh A4GNT (11735810_at) / RFU PRB3 (11715151_x_at) / Fold change /veh PRB3 (11715151_x_at) / RFU TUBB4B (11761932_at) / Fold change /veh TUBB4B (11761932_at) / RFU CAPN14 (11732068_a_at) / Fold change /veh CAPN14 (11732068_a_at) / RFU TMCC2 (11721928_a_at) / Fold change /veh TMCC2 (11721928_a_at) / RFU IRGQ (11745062_a_at) / Fold change /veh IRGQ (11745062_a_at) / RFU FAM174B (11720279_a_at) / Fold change /veh FAM174B (11720279_a_at) / RFU TMPRSS4 (11748680_a_at) / Fold change /veh TMPRSS4 (11748680_a_at) / RFU FAM212B (11763350_a_at) / Fold change /veh FAM212B (11763350_a_at) / RFU PLEKHG5 (11743358_a_at) / Fold change /veh PLEKHG5 (11743358_a_at) / RFU ZSCAN30 (11745921_a_at) / Fold change /veh ZSCAN30 (11745921_a_at) / RFU CMKLR1 (11741424_a_at) / Fold change /veh CMKLR1 (11741424_a_at) / RFU LOC101060620 /// MAPK8IP1 (11723275_at) / Fold change /veh LOC101060620 /// MAPK8IP1 (11723275_at) / RFU SPTSSB (11747773_x_at) / Fold change /veh SPTSSB (11747773_x_at) / RFU PRSS12 (11739890_at) / Fold change /veh PRSS12 (11739890_at) / RFU BIN1 (11741810_x_at) / Fold change /veh BIN1 (11741810_x_at) / RFU WNT11 (11732464_a_at) / Fold change /veh WNT11 (11732464_a_at) / RFU C10orf10 (11716521_a_at) / Fold change /veh C10orf10 (11716521_a_at) / RFU C5orf56 (11738089_at) / Fold change /veh C5orf56 (11738089_at) / RFU CYB561 (11721691_x_at) / Fold change /veh CYB561 (11721691_x_at) / RFU ANKRD19P (11752326_a_at) / Fold change /veh ANKRD19P (11752326_a_at) / RFU OR2T12 /// OR2T33 /// OR2T8 (11738714_s_at) / Fold change /veh OR2T12 /// OR2T33 /// OR2T8 (11738714_s_at) / RFU VCAN (11748164_a_at) / Fold change /veh VCAN (11748164_a_at) / RFU JSRP1 (11732532_at) / Fold change /veh JSRP1 (11732532_at) / RFU KRTAP10-11 (11738290_x_at) / Fold change /veh KRTAP10-11 (11738290_x_at) / RFU MYO3A (11730013_a_at) / Fold change /veh MYO3A (11730013_a_at) / RFU EBF3 (11725865_a_at) / Fold change /veh EBF3 (11725865_a_at) / RFU CAMK2N1 (11719241_x_at) / Fold change /veh CAMK2N1 (11719241_x_at) / RFU C5orf56 (11738088_a_at) / Fold change /veh C5orf56 (11738088_a_at) / RFU OLFML3 (11715873_a_at) / Fold change /veh OLFML3 (11715873_a_at) / RFU LOC100653217 /// NTM (11731650_a_at) / Fold change /veh LOC100653217 /// NTM (11731650_a_at) / RFU MAPK11 (11762145_a_at) / Fold change /veh MAPK11 (11762145_a_at) / RFU FIZ1 (11724087_x_at) / Fold change /veh FIZ1 (11724087_x_at) / RFU OASL (11726364_x_at) / Fold change /veh OASL (11726364_x_at) / RFU SOX15 (11748057_x_at) / Fold change /veh SOX15 (11748057_x_at) / RFU CD79A (11719716_a_at) / Fold change /veh CD79A (11719716_a_at) / RFU HIST1H1D (11736915_at) / Fold change /veh HIST1H1D (11736915_at) / RFU CASKIN2 (11723855_a_at) / Fold change /veh CASKIN2 (11723855_a_at) / RFU LOC730098 (11760151_x_at) / Fold change /veh LOC730098 (11760151_x_at) / RFU OR4N2 (11742367_at) / Fold change /veh OR4N2 (11742367_at) / RFU PRRT2 (11749266_a_at) / Fold change /veh PRRT2 (11749266_a_at) / RFU SNX32 (11753110_a_at) / Fold change /veh SNX32 (11753110_a_at) / RFU CDHR5 (11726645_a_at) / Fold change /veh CDHR5 (11726645_a_at) / RFU RCAN1 (11760418_a_at) / Fold change /veh RCAN1 (11760418_a_at) / RFU FAM167A (11723789_a_at) / Fold change /veh FAM167A (11723789_a_at) / RFU FAM26E (11764081_at) / Fold change /veh FAM26E (11764081_at) / RFU ISYNA1 (11749810_s_at) / Fold change /veh ISYNA1 (11749810_s_at) / RFU ACY1 (11761880_at) / Fold change /veh ACY1 (11761880_at) / RFU 11764098_at / Fold change /veh 11764098_at / RFU SAMD14 (11745864_x_at) / Fold change /veh SAMD14 (11745864_x_at) / RFU NPB (11741838_a_at) / Fold change /veh NPB (11741838_a_at) / RFU TMPRSS6 (11731388_a_at) / Fold change /veh TMPRSS6 (11731388_a_at) / RFU KRTAP10-2 (11738614_at) / Fold change /veh KRTAP10-2 (11738614_at) / RFU ARHGAP8 /// PRR5-ARHGAP8 (11727945_x_at) / Fold change /veh ARHGAP8 /// PRR5-ARHGAP8 (11727945_x_at) / RFU KRTAP5-7 /// NADSYN1 (11734609_at) / Fold change /veh KRTAP5-7 /// NADSYN1 (11734609_at) / RFU RASL12 (11751679_a_at) / Fold change /veh RASL12 (11751679_a_at) / RFU CDKN2B (11736163_a_at) / Fold change /veh CDKN2B (11736163_a_at) / RFU PRF1 (11729649_at) / Fold change /veh PRF1 (11729649_at) / RFU, ZNF638 /// ZNF638-IT1 / Fold change vs veh, ZNF638 /// ZNF638-IT1 / RFU, PANK3 / Fold change vs veh, PANK3 / RFU, SH3YL1 / Fold change vs veh, SH3YL1 / RFU, ZEB2 / Fold change vs veh, ZEB2 / RFU, NRIP1 / Fold change vs veh, NRIP1 / RFU, PTTG1IP / Fold change vs veh, PTTG1IP / RFU, CAPN2 / Fold change vs veh, CAPN2 / RFU, MED14 / Fold change vs veh, MED14 / RFU, SNORA58 / Fold change vs veh, SNORA58 / RFU, C1orf63 / Fold change vs veh, C1orf63 / RFU, LRRFIP1 / Fold change vs veh, LRRFIP1 / RFU, NDUFAF7 / Fold change vs veh, NDUFAF7 / RFU, SLC12A2 / Fold change vs veh, SLC12A2 / RFU, IBTK / Fold change vs veh, IBTK / RFU, ESF1 / Fold change vs veh, ESF1 / Fold change vs veh, TMEM50B / RFU, TAOK1 / Fold change vs veh, TAOK1 / RFU, ACBD3 / Fold change vs veh, ACBD3 / RFU, TMA16 / Fold change vs veh, TMA16 / RFU, RWDD3 / Fold change vs veh, RWDD3 / RFU, BCAT1 / Fold change vs veh, BCAT1 / RFU, EDEM3 / Fold change vs veh, EDEM3 / RFU, TMEM33 / Fold change vs veh, TMEM33 / RFU, WDR75 / Fold change vs veh, WDR75 / RFU, AHCTF1 / Fold change vs veh, AHCTF1 / RFU, TFRC / Fold change vs veh, TFRC / RFU, ZDHHC17 / Fold change vs veh, ZDHHC17 / RFU, NOM1 / Fold change vs veh, NOM1 / RFU, ARL8B / Fold change vs veh, ARL8B / RFU, ZBTB11 / Fold change vs veh, ZBTB11 / RFU, TAMM41 / Fold change vs veh, TAMM41 / RFU, KIAA1704 /// LOC100996395 / Fold change vs veh, KIAA1704 /// LOC100996395 / RFU, ING1 / Fold change vs veh, ING1 / RFU, TRMT61B / Fold change vs veh, TRMT61B / RFU, FUBP3 / Fold change vs veh, FUBP3 / RFU, TP53 / Fold change vs veh, TP53 / RFU, TNKS2 / Fold change vs veh, TNKS2 / RFU, ZFP14 / Fold change vs veh, ZFP14 / RFU, ACTR2 / Fold change vs veh, ACTR2 / RFU, PPP3R1 / Fold change vs veh, PPP3R1 / RFU, PIK3R1 / Fold change vs veh, PIK3R1 / RFU, HNRNPA1 / Fold change vs veh, HNRNPA1 / RFU, RNF170 / Fold change vs veh, RNF170 / RFU, ZNF28 / Fold change vs veh, ZNF28 / RFU, RNGTT / Fold change vs veh, RNGTT / RFU, OGT / Fold change vs veh, OGT / RFU, BRD1 / Fold change vs veh, BRD1 / RFU, MARS / Fold change vs veh, MARS / RFU, ZNF655 / Fold change vs veh, ZNF655 / RFU, FAHD1 / Fold change vs veh, FAHD1 / RFU, BDP1 / Fold change vs veh, BDP1 / RFU, LRRCC1 / Fold change vs veh, LRRCC1 / RFU, ARID1A / Fold change vs veh, ARID1A / RFU, ZNF146 / Fold change vs veh, ZNF146 / RFU, ZNF330 / Fold change vs veh, ZNF330 / RFU, GPN3 / Fold change vs veh, GPN3 / RFU, C9orf123 / Fold change vs veh, C9orf123 / RFU, N4BP2L2 / Fold change vs veh, N4BP2L2 / RFU, ARFIP1 / Fold change vs veh, ARFIP1 / RFU, FAM179B / Fold change vs veh, FAM179B / RFU, BCL10 / Fold change vs veh, BCL10 / RFU, UHRF1BP1L / Fold change vs veh, UHRF1BP1L / RFU, BET1 / Fold change vs veh, BET1 / RFU, CNOT2 / Fold change vs veh, CNOT2 / RFU, ZNF268 / Fold change vs veh, ZNF268 / Fold change vs veh, ZNF507 / RFU, DGCR2 / Fold change vs veh, DGCR2 / RFU, WDSUB1 / Fold change vs veh, WDSUB1 / Fold change vs veh, HSP90B1 /// MIR3652 / RFU, ADSS / Fold change vs veh, ADSS / RFU, GK / Fold change vs veh, GK / RFU, ZNF148 / Fold change vs veh, ZNF148 / RFU, TAF9 / Fold change vs veh, TAF9 / RFU, SLC1A5 / Fold change vs veh, SLC1A5 / RFU, SLMO2 / Fold change vs veh, SLMO2 / RFU, ABCC4 / Fold change vs veh, ABCC4 / RFU, LOC101060439 /// RAP1B / Fold change vs veh, LOC101060439 /// RAP1B / RFU, RFX7 / Fold change vs veh, RFX7 / RFU, GTPBP10 / Fold change vs veh, GTPBP10 / RFU, CNEP1R1 / Fold change vs veh, CNEP1R1 / RFU, BIVM-ERCC5 /// ERCC5 / Fold change vs veh, BIVM-ERCC5 /// ERCC5 / RFU, ILF3 / Fold change vs veh, ILF3 / RFU 11762660_at / Fold change /veh 11762660_at / RFU VCAN (11757783_s_at) / Fold change /veh VCAN (11757783_s_at) / RFU DDX43 (11728927_at) / Fold change /veh DDX43 (11728927_at) / RFU KRT8 (11758188_x_at) / Fold change /veh KRT8 (11758188_x_at) / RFU NKD1 (11759106_at) / Fold change /veh NKD1 (11759106_at) / RFU SRD5A1 (11742802_a_at) / Fold change /veh SRD5A1 (11742802_a_at) / RFU TPSAB1 /// TPSB2 (11721975_s_at) / Fold change /veh TPSAB1 /// TPSB2 (11721975_s_at) / RFU GSTM3 (11746129_a_at) / Fold change /veh GSTM3 (11746129_a_at) / RFU IL23R (11737362_x_at) / Fold change /veh IL23R (11737362_x_at) / RFU TMEM51 (11727254_a_at) / Fold change /veh TMEM51 (11727254_a_at) / RFU PIWIL2 (11732686_x_at) / Fold change /veh PIWIL2 (11732686_x_at) / RFU ORM1 (11744905_x_at) / Fold change /veh ORM1 (11744905_x_at) / RFU CCDC152 (11743942_at) / Fold change /veh CCDC152 (11743942_at) / RFU ECM1 (11717891_a_at) / Fold change /veh ECM1 (11717891_a_at) / RFU IL23R (11748794_a_at) / Fold change /veh IL23R (11748794_a_at) / RFU TNFAIP8L3 (11732012_x_at) / Fold change /veh TNFAIP8L3 (11732012_x_at) / RFU MBOAT4 (11741988_at) / Fold change /veh MBOAT4 (11741988_at) / RFU 11764193_at / Fold change /veh 11764193_at / RFU TMEM53 (11763286_at) / Fold change /veh TMEM53 (11763286_at) / RFU MAGEB2 (11727129_at) / Fold change /veh MAGEB2 (11727129_at) / RFU TMEM200A (11744735_a_at) / Fold change /veh TMEM200A (11744735_a_at) / RFU CCDC152 (11751479_a_at) / Fold change /veh CCDC152 (11751479_a_at) / RFU FAM211A (11726209_a_at) / Fold change /veh FAM211A (11726209_a_at) / RFU RGS16 (11746705_a_at) / Fold change /veh RGS16 (11746705_a_at) / RFU VCAN (11755009_s_at) / Fold change /veh VCAN (11755009_s_at) / RFU RHOB (11743442_s_at) / Fold change /veh RHOB (11743442_s_at) / RFU RGS16 (11720943_a_at) / Fold change /veh RGS16 (11720943_a_at) / RFU RGS16 (11720944_at) / Fold change /veh RGS16 (11720944_at) / RFU, VPS4B / Fold change vs veh, VPS4B / RFU, CREB1 / Fold change vs veh, CREB1 / RFU, DNAJC13 / Fold change vs veh, DNAJC13 / RFU, GNAQ / Fold change vs veh, GNAQ / RFU, CDK5R1 / Fold change vs veh, CDK5R1 / RFU, ZRANB3 / Fold change vs veh, ZRANB3 / RFU, CUL4A / Fold change vs veh, CUL4A / RFU, CCNY / Fold change vs veh, CCNY / RFU, UFL1 / Fold change vs veh, UFL1 / RFU, COG3 / Fold change vs veh, COG3 / RFU, DIAPH2 / Fold change vs veh, DIAPH2 / RFU, SKA2 / Fold change vs veh, SKA2 / RFU, AFF3 / Fold change vs veh, AFF3 / RFU, LMF1 / Fold change vs veh, LMF1 / RFU, IPO11 / Fold change vs veh, IPO11 / RFU, DFFB / Fold change vs veh, DFFB / RFU, FOXP1 / Fold change vs veh, FOXP1 / RFU, CARD8 / Fold change vs veh, CARD8 / RFU, STRN3 / Fold change vs veh, STRN3 / RFU, ADK / Fold change vs veh, ADK / RFU, RASSF2 / Fold change vs veh, RASSF2 / RFU, WIPF1 / Fold change vs veh, WIPF1 / RFU, LARP1B / Fold change vs veh, LARP1B / RFU, RASA1 / Fold change vs veh, RASA1 / RFU, RB1 / Fold change vs veh, RB1 / RFU, PPFIA1 / Fold change vs veh, PPFIA1 / RFU, MAT2A / Fold change vs veh, MAT2A / RFU, CCT5 / Fold change vs veh, CCT5 / RFU, WDR92 / Fold change vs veh, WDR92 / RFU, CUX1 / Fold change vs veh, CUX1 / RFU, TTC7A / Fold change vs veh, TTC7A / RFU, TMEM135 / Fold change vs veh, TMEM135 / RFU, DEPTOR / Fold change vs veh, DEPTOR / RFU, CPM / Fold change vs veh, CPM / RFU, DNAJB6 / Fold change vs veh, DNAJB6 / RFU, CACNA2D3 / Fold change vs veh, CACNA2D3 / RFU, DTX4 / Fold change vs veh, DTX4 / RFU, TFCP2 / Fold change vs veh, TFCP2 / RFU, GMCL1 /// GMCL1P1 / Fold change vs veh, GMCL1 /// GMCL1P1 / RFU, AEBP2 / Fold change vs veh, AEBP2 / RFU, SNHG1 /// SNORD22 /// SNORD25 /// SNORD26 /// SNORD27 /// SNORD28 /// SNORD29 /// SNORD31 / Fold change vs veh, SNHG1 /// SNORD22 /// SNORD25 /// SNORD26 /// SNORD27 /// SNORD28 /// SNORD29 /// SNORD31 / Fold change (Aza/veh), C12orf56 (ProbeSet 11735607_a_at) / Fold change (ACY-1035/veh), C12orf56 (ProbeSet 11735607_a_at) / Fold change (Aza/veh), FGFR1OP (ProbeSet 11751329_s_at) / Fold change (ACY-1035/veh), FGFR1OP (ProbeSet 11751329_s_at) / Fold change (Aza/veh), VPS36 (ProbeSet 11739960_a_at) / Fold change (ACY-1035/veh), VPS36 (ProbeSet 11739960_a_at) / RFU SYPL1 (11715823_x_at) / Fold change /veh SYPL1 (11715823_x_at) / RFU IGFBP7 (11715501_s_at) / Fold change /veh IGFBP7 (11715501_s_at) / RFU REEP3 (11722064_at) / Fold change /veh REEP3 (11722064_at) / RFU IGLL1 (11728026_x_at) / Fold change /veh IGLL1 (11728026_x_at): dose or concentration left out as unconfirmed
Settings: ProbeSet 11724877_a_at; LIST D

## Nc1ccc(-c2cccs2)cc1NC(=O)c1ccc2c(c1)cc(C1CC1)n2CCN1CCOCC1 [ACY-1035]
  RFU, AEBP2: 30.16 RFU
